# Entries after “also recorded” stand apart in the source; their conditions may differ. Where two headings read alike, the source gives them in different places.
# Assays:
# [1] = molecular target: HBV capsid assembly (full-length HBc protein, genotype D1) (Hepatitis B virus genotype D subtype ayw, UniProt P03146, A80I/T33N/V74G); assay: HBV capsid assembly in SFV1/HBc-infected HBc-producing BHK-21 cells, native agarose gel anti-HBc immunoblot; format: cell-based; conditions: HBc-producing BHK-21 cells; for Effect on capsid production / mobility in initial test: 1–50 μM, 24 h (Figure 5); for Effect on Capsid Assembly / Effect on Capsid Assembly, Starting Concentration: 24 h, native agarose immunoblot; for Type of effect on HBV capsid assembly in dose-dependent experiments: 0.1–50 µM, 24 h (Figure 6)
# HBV capsid assembly (full-length HBc protein, genotype D1), sequence (P03146 whole entry A80I/T33N/V74G, looked up): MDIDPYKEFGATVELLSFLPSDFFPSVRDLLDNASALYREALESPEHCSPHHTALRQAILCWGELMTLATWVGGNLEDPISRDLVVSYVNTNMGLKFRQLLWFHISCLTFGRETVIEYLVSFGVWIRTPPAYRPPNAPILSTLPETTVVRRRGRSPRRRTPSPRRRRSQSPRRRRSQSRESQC
# [2] = test system: BHK-21 cells; assay: Cytopathic effect (cell morphology, proliferation, trypan blue) in non-infected BHK-21 cells; format: cell-based, hamster; conditions: 24 h
# Experimental: To define HAP compound non-toxic concentrations for initial studies, non-infected BHK-21 cells were incubated with compounds at four different concentrations for 24 h (25 μM, 50 μM, 100 μM, and 200 μM), and the cytopathic effects were evaluated by analysis of cell morphology and proliferation changes. […] 1c, 1j, 1k and 4a, and 7b. The reference comp.
# The cytopathic effect of the compounds was estimated by phase contrast microscopy and standard trypan blue staining, and the cells were counted using an automatic cell counter (Invitrogen). BHK-21 and HepG2.2.15 cells were incubated for 24 h with the studied compounds at […] (25, 50, 100, 150 and 200 μM) and the cell morphology was controlled under microscope to evaluate cytopathic effects (Table 1, the highest non-toxic concentration).
# [3] = MTT viability assay in BHK-21 cells; format: cell-based, hamster; conditions: hamster, 200 µM, read-out: Cell viability, percentage from untreated cells
# Experimental: BHK-21 cells were incubated with different concentrations (6.125, 12.25, 25, 50, 100, and 200 µM) of the respective compounds and the cell viability was calculated as a percentage from untreated cells (100%) (Figure 7). In general, the results confirmed the morphological observation of relatively low cytotoxicity for tested compounds at concentrations below 100 µM.
# Additionally, cell viability was determined by tetrazolium salt-based assay using the Vybrant MTT Cell Proliferation kit (Thermo Fisher Scientific, Waltham, MA, USA) or more sensitive CCK-8 kit (Abcam). First, the cell numbers and protocol were optimized for BHK-21 and HepG2.2.15 cells, as indicated in the MTT assay kit or CCK-8 reagent manufacturer’s protocol, and standard curves with OD values were created and evaluated.
# In order to evaluate the toxicity of selected HAP compounds in the medium, 1.3 × 10^4 BHK-21 were seeded per well in 96-well plates and treated with the studied compounds for 24 h at concentrations 6.125; 12.25; 25; 50; 100; and 200 μM. Control cells without HAP compounds and MTT-free cell media were included in the experiments. The MTT test was performed according to the full protocol version (Thermo Fisher Scientific).
# [4] = test system: HBV; conditions: HepG2.2.15 cells; for HBV DNA, % from control: six days, secreted virion DNA
# [5] = test system: HepG2.2.15 cells; assay: MTT viability test in HepG2.2.15 cells (TC50); format: cell-based, human; conditions: 48 h, 0–200 µM
# Experimental: In order to compare the cytotoxicity of compounds 1d and 1e in HBV producing HepG2.2.15 cells, the toxic concentrations (TC50 values) were estimated (Figure 9B,C).
# In order to calculate the median of the toxic concentration (TC50) of the compounds, 1.33 × 10^5 HepG2.2.15 cells per well were seeded into a 24-well plate. After 24 h, the cells were treated with the test compounds at different concentrations (0, 50, 100, 150, 200 μM) and incubated for 48 h at 37 °C. All experiments were carried out in three identical repeats and the coefficient of variation and standard deviation were calculated from at least two independent experiments.
# The percent inhibition at each compound concentration was calculated by normalization of the signals to the signals from non-treated HepG2.2.15 cells. […] Data points and error bars represent the means and standard deviations from at least two independent experiments, respectively. Comparisons between data groups were performed using the unpaired t test, with p values < 0.05 being considered statistically significant.
# [6] = test system: HBV; assay: microbe, parasite or virus in culture; conditions: Hepatitis B virus, HepG2.2.15, 144 h, read-out: EC50 (50% reduction of HBV DNA), HepG2.2.15 cells, six days, 0–20 µM
# [7] = non-infected BHK-21 cells, no noticeable cytopathic effect
SMILES,Effect on capsid production / mobility in initial test [1],Effect on Capsid Assembly [1],melting point,"Effect on Capsid Assembly, Starting Concentration [1]",further results
CCCCCCCCCCCCCCCC[n+]1ccc(C)cc1.Cc1ccc(S(=O)(=O)[O-])cc1 [7b],did not induce a significant effect on the capsid mobility,No effect,–,–,–
COC(=O)C1=C(C[N+]2(C)CCOCC2)NC(c2ncc(F)cc2F)=NC1c1ccc(F)cc1Cl (stereo not shown) [3c],did not induce a significant effect on the capsid mobility,No effect,181 to 182 °C,–,"The Highest Non-Toxic Concentration [2, 7]: 150 µM"
CC1=C(C(=O)O)C(c2ccc(F)cc2Cl)N=C(c2ncc(F)cc2F)N1 (stereo not shown) [1b],inhibitory effect,Dose dependent capsid signal decrease,–,10 µM,"Type of effect on HBV capsid assembly in dose-dependent experiments [1]: dose-dependent HBc signal decrease; viability at 24 h, 200 µM [3]: > 90%; HBV DNA, % from control ([4]; 10 µM): 74.3%; The Highest Non-Toxic Concentration [2, 7]: 50 µM"
CC1=C(C(=O)OCCOC(C)C)C(c2ccc(F)cc2Cl)N=C(c2ncc(F)cc2F)N1 (stereo not shown) (hydrate or solvate) [1e],–,–,156 to 157 °C,–,–
CC1=C(C(=O)OCCOC(C)C)C(c2ccc(F)cc2Cl)N=C(c2ncc(F)cc2F)N1 (stereo not shown) [1e],misfolding of the HBV capsid,Dose dependent capsid signal decrease,–,10 µM,"Effect on capsids at lower concentrations ([1]; 5 μM and 10 μM): capsid stabilization and accumulation; Effect on capsids at higher concentrations ([1]; 20 μM and 50 μM): capsids were almost non-detectable; Type of effect on HBV capsid assembly in dose-dependent experiments [1]: dose-dependent HBc signal decrease; viability at 24 h, 200 µM [3]: > 90%; SI (TC50/EC50) [4]: 11; HBV DNA, % from control ([4]; 20 µM): 6.3%; Decrease in the amount of HBV virion release compared with control ([4]; Figure 8): ≤ 93.5%; The Highest Non-Toxic Concentration [2, 7]: 100 µM; TC50 [5]: 98 µM; EC50 [6]: 9.16 µM"
CCOC(=O)C1=C(C)NC(c2nccs2)=NC1c1ccccc1 (stereo not shown) (hydrate or solvate) [1k],–,–,129 to 130 °C,–,–
COc1ccccc1NC(=O)C1=C(C)NC(c2ncc(F)cc2F)=NC1c1ccc(F)cc1Cl (stereo not shown) (hydrate or solvate) [1i],–,–,149 to 150 °C,–,–
CC1=C(C(=O)Nc2ccccn2)C(c2ccc(F)cc2Cl)N=C(c2ncc(F)cc2F)N1 (stereo not shown) [1h],–,Dose dependent capsid signal decrease,–,20 µM,"Type of effect on HBV capsid assembly in dose-dependent experiments [1]: dose-dependent HBc signal decrease; viability at 24 h, 200 µM [3]: > 90%; The Highest Non-Toxic Concentration [2, 7]: 150 µM"
CCOC(=O)c1c(C)nc(-c2nccs2)nc1-c1ccc(F)cc1 [4b],did not induce a significant effect on the capsid mobility,No effect,–,–,–
CCCOCCOC(=O)C1=C(C)NC(c2ncc(F)cc2F)=NC1c1ccccc1OC(F)F (stereo not shown) [1g],did not induce a significant effect on the capsid mobility; also recorded: some increase in capsid band signal,Insignificant capsid amount increases,–,–,"The Highest Non-Toxic Concentration [2, 7]: 50 µM"
CCOC(=O)C1=C(C)NC(c2nccs2)=NC1c1ccc(F)cc1 (stereo not shown) [1j],misfolding of the HBV capsid,"HBc accumulation, aggregates/or incorrect capsid structures",–,5 µM,Type of effect on HBV capsid assembly in dose-dependent experiments [1]: dose-dependent HBc products accumulation
CCOC(=O)C1=C(C)NC(c2nccs2)=NC1c1ccccc1 (stereo not shown) [1k],misfolding of the HBV capsid,"Dose dependent HBc accumulation, aggregates/or incorrect capsid structures",–,1 µM,–
CC1=C(C(=O)Nc2ccccn2)C(c2ccc(F)cc2Cl)N=C(c2ncc(F)cc2F)N1 (stereo not shown) (hydrate or solvate) [1h],–,–,152 to 153 °C,–,–
COc1ccccc1NC(=O)C1=C(C)NC(c2ncc(F)cc2F)=NC1c1ccc(F)cc1Cl (stereo not shown) [1i],–,Dose dependent capsid signal decrease,–,20 µM,"Type of effect on HBV capsid assembly in dose-dependent experiments [1]: dose-dependent HBc signal decrease; viability at 24 h, 200 µM [3]: 71%; The Highest Non-Toxic Concentration [2, 7]: 50 µM"
COC(=O)C1=C(C[N+]2(C)CCCC2)NC(c2ncc(F)cc2F)=NC1c1ccc(F)cc1Cl (stereo not shown) [3b],did not induce a significant effect on the capsid mobility,No effect,167 to 168 °C,–,–
O=C1OCC2=C1C(c1ccc(F)cc1Cl)N=C(c1ncc(F)cc1F)N2 (stereo not shown) [compound 5],misfolding of the HBV capsid,"HBc accumulation, aggregates/or incorrect capsid structures",–,50 µM,Type of effect on HBV capsid assembly in dose-dependent experiments [1]: dose-dependent HBc products accumulation
COC(=O)C1=C(C[n+]2ccccc2)NC(c2ncc(F)cc2F)=NC1c1ccc(F)cc1Cl (stereo not shown) [3a],did not induce a significant effect on the capsid mobility,No effect,173 to 174 °C,–,–
CCOC(=O)C1=C(C)NC(c2nccs2)=CC1c1ccc(F)cc1Cl (stereo not shown) [compound 6],did not induce a significant effect on the capsid mobility,No effect,–,–,–
CCOC(=O)C1=C(C)NC(c2ncc(F)cc2F)=NC1c1ccc(F)cc1 (stereo not shown) (hydrate or solvate) [1c],–,–,126 to 127 °C,–,–
CCOC(=O)C1=C(C)NC(c2nccs2)=NC1c1ccc(F)cc1 (stereo not shown) (hydrate or solvate) [1j],–,–,114 to 115 °C,–,–
CCCOCCOC(=O)C1=C(C)NC(c2ncc(F)cc2F)=NC1c1ccc(F)cc1Cl (stereo not shown) [1f],misfolding of the HBV capsid,"HBc accumulation, aggregates/or incorrect capsid structures",–,10 µM,"Type of effect on HBV capsid assembly in dose-dependent experiments [1]: dose-dependent HBc products accumulation; viability at 24 h, 200 µM [3]: > 90%; HBV DNA, % from control ([4]; 20 µM): 52.5%; The Highest Non-Toxic Concentration [2, 7]: 100 µM"
CCOC(=O)C1=C(C)NC(c2ncc(F)cc2F)=NC1c1ccc(F)cc1 (stereo not shown) [1c],inhibitory effect,Capsid signal decrease,–,5 µM,–
CCOCCOC(=O)C1=C(C)NC(c2ncc(F)cc2F)=NC1c1ccc(F)cc1Cl (stereo not shown) (hydrate or solvate) [1d],–,–,143 to 144 °C,–,–
CCOC(=O)c1c(C)nc(-c2nccs2)nc1-c1ccccc1 [4a],did not induce a significant effect on the capsid mobility,No effect,93 to 94 °C,–,–
COC(=O)C1=C(C[N+]23CCC(CC2)C(O)C3)NC(c2ncc(F)cc2F)=NC1c1ccc(F)cc1Cl (stereo not shown) [3d],inhibitory effect,"Capsid signal decrease, possible changes in NS packaging",–,–,The Highest Non-Toxic Concentration ([2]; hamster): 100 µM
CCCCCC[n+]1ccc(C)cc1.Cc1ccc(S(=O)(=O)[O-])cc1 [7a],did not induce a significant effect on the capsid mobility,No effect,–,–,"The Highest Non-Toxic Concentration [2, 7]: 50 µM"
CCCOCCOC(=O)C1=C(C)NC(c2ncc(F)cc2F)=NC1c1ccccc1OC(F)F (stereo not shown) (hydrate or solvate) [1g],–,–,164 to 165 °C,–,–
CCCOCCOC(=O)C1=C(C)NC(c2ncc(F)cc2F)=NC1c1ccc(F)cc1Cl (stereo not shown) (hydrate or solvate) [1f],–,–,149 to 150 °C,–,–
